The values below come from US9248085B2, “Effective depilatory article” (The Procter & Gamble Company, priority 2011, dated 2016).

The assay in a line: Hair removal from the skin and skin irritation by thioglycolate salts (statement, no method). The class given is in vivo. The conditions noted are these: even at low doses.

Take `O=C([O-])CS.[K+]` [potassium thioglycolate]: the “hair removal from the skin” value is “effective at removing hair from the skin”.
